Results taken from patent US9827229B2, “Small molecule securinine and norsecurinine analogs and their use in cancers, inflammatory diseases and infections” (INVENIO THERAPEUTICS INC., priority 2013, dated 2017).
Like-named read-outs stand apart in the source and are kept apart here.

Assays:
mice = assay: Seizures in mice; assay type: in vivo; settings: due to GABA receptor binding
Description: The present invention provides for methods of treating a condition as described herein with less adverse additional effects. As is known in the art, securinine antagonizes the GABAA receptor.

HL60 cells [1] = assay: Differentiation of HL60 cells (Dif50); assay type: cell-based, human
Description: The tested compounds and their respective results are produced in Table 1. Those skilled in the art will appreciate that combining the securinine and/or norsecurinine analogs with other differentiation inducing agents, such as all-trans retinoic acid, cytarabine and/or an anthracycline, would be of further benefit. Those skilled in the art will appreciate that inducing differentiation may further reduce oxidative damage due to lower presence of radical inducing enzymes (see, e.g., Yamada et al. J Biol Chem 259(5)3021-3025 (1984) and Weil et al., PNAS 84:2057-2061 (1987)).
(§1) The analogs were then tested and evaluated on the ability to affect differentiation and growth of HL60 cells.

HL60 cells [2] = assay: Growth of HL60 cells (IC50); assay type: cell-based, human; parameters: HL-60, Dif50/IC50 column: second value of 'x/y at 1.25 uM' (growth): unit not given here; settings: for IC50: growth, read-out: HL-60, IC50
Experimental: as §1

SKOV3 P53−/− = assay: Growth inhibition of ovary cancer SKOV3 P53−/−; assay type: cell-based
Description: (§2) The analogs were then further tested for inhibiting growth against various cancer cell lines: AML (Mol3, OCI), Colon cancer (HCT116) and Ovary cancer (SKOV3). IC50 are documented in Table 2.

SKOV3 P53+/+ = assay: Growth inhibition of ovary cancer SKOV3 P53+/+; assay type: cell-based
Description: as §2

HCT116 P53−/− = assay: Growth inhibition of colon cancer HCT116 P53−/−; assay type: cell-based
Description: as §2

HCT116 P53+/+ = assay: Growth inhibition of colon cancer HCT116 P53+/+; assay type: cell-based
Description: as §2

MOL3 = assay: Growth inhibition of AML cell line MOL3; assay type: cell-based, human
Description: as §2

OCI = assay: Growth inhibition of AML cell line OCI; assay type: cell-based, human
Description: as §2

[3] = Homo sapiens, SK-OV-3, ovary cancer SKOV3 P53−/−
[4] = Homo sapiens, SK-OV-3, ovary cancer SKOV3 P53+/+
[5] = Homo sapiens, HCT-116, colon cancer HCT116 P53−/−
[6] = Homo sapiens, HCT-116, colon cancer HCT116 P53+/+
[7] = Homo sapiens, HL-60, read-out: HL-60, Dif50, HL-60 cells, differentiation, no unit in head or cell (other cells of the column print uM)
[8] = Homo sapiens, HL-60, HL-60 cells, differentiation, no unit in head or cell (other cells of the column print uM), read-out: HL-60, Dif50
[9] = read-out: HL-60, Dif50, HL-60 cells, differentiation, no unit in head or cell (other cells of the column print uM)

SMILES	IC50 (SKOV3 P53−/−; [3])	IC50 (SKOV3 P53+/+; [4])	IC50 (HCT116 P53−/−; [5])	IC50 (HCT116 P53+/+; [6])	other results
O=C1C=C2C=C[C@@H]3C[C@@]2(O1)[C@H]1CCCCN31 [Securinine]					seizures in mice (mice): causes seizures
N#CCCCC#C/C(=C\C1=C[C@@H]2C[C@@]3(OC(=O)C=C13)[C@H]1CCCCN21)CCCC#N [INVS-MG-125-IIB]					HL-60, Dif50/IC50 column: first value of 'x/y at 10 uM' (differentiation) (HL60 cells [1]; HL-60 cells): 40; HL-60, Dif50/IC50 column: second value of 'x/y at 10 uM' (growth) (HL60 cells [2]; HL-60 cells): 35
N#Cc1ccc(C#CC2=C[C@@H]3C[C@@]4(OC(=O)C=C24)[C@H]2CCCCN32)cc1 [INVS-MG-164B]	4.2 µM	6.8 µM	6.4 µM	5.2 µM	
CN(C)CC#CC1=C[C@@H]2C[C@@]3(OC(=O)C=C13)[C@H]1CCCCN21 [INVS-MG-111B]	2.8 µM	1.8 µM	1.5 µM	1.1 µM	IC50 (MOL3; Homo sapiens): 0.07 µM; IC50 (OCI; Homo sapiens): 0.09 µM
O=C1C=C2C(C#Cc3ccsc3)=C[C@@H]3C[C@@]2(O1)[C@H]1CCCCN31 [INVS-MG-136-III]					IC50 (SKOV3 P53−/−; ovary cancer SKOV3 P53−/−): 1.1 µM; IC50 (SKOV3 P53+/+; ovary cancer SKOV3 P53+/+): 0.7 µM; IC50 (HCT116 P53−/−; colon cancer HCT116 P53−/−): 2.2 µM; IC50 (MOL3): 0.1 µM; IC50 (HCT116 P53+/+; colon cancer HCT116 P53+/+): 1.8 µM; IC50 (OCI): 0.115 µM; IC50 (HL60 cells [2]; HL-60 cells, no unit in head or cell (other cells of the column print uM)): < 0.07 µM
O=C1C=C2C(C#Cc3ccccc3)=C[C@@H]3C[C@@]2(O1)[C@H]1CCCCN31 [INVS-MG-110B]	3 µM	2.1 µM	2.3 µM	1.9 µM	IC50 (MOL3; Homo sapiens): 0.07 µM; IC50 (OCI; Homo sapiens): 0.08 µM
COc1ccc(C#CC2=C[C@@H]3C[C@@]4(OC(=O)C=C24)[C@H]2CCCCN32)cc1 [INVS-MG-134C]	2.8 µM	1.2 µM	1.1 µM	1 µM	IC50 (MOL3; Homo sapiens): 0.06 µM; IC50 (OCI; Homo sapiens): 0.08 µM
O=C1C=C2C(I)=C[C@@H]3C[C@@]2(O1)[C@H]1CCCCN31 [INVS-MG-82-II]	3.1 µM	1.6 µM	1.1 µM	1.4 µM	IC50 (MOL3; Homo sapiens): 0.09 µM; IC50 (OCI; Homo sapiens): 0.1 µM
C=CCOCC#CC1=C[C@@H]2C[C@@]3(OC(=O)C=C13)[C@H]1CCCCN21 [INVS-MG-159A]					HL-60, Dif50/IC50 column: first value of 'x/y at 10 uM' (differentiation) (HL60 cells [1]; HL-60 cells): 20/20 at 10 uM; HL-60, Dif50/IC50 column: second value of 'x/y at 10 uM' (growth) (HL60 cells [2]; HL-60 cells): 20/20 at 10 uM
CN(C)c1ccc(C#CC2=C[C@@H]3C[C@@]4(OC(=O)C=C24)[C@H]2CCCCN32)cc1 [INVS-MG-146B]	0.8 µM	0.7 µM	1.8 µM	0.8 µM	
N#CCCCC#CC1=C[C@@H]2C[C@@]3(OC(=O)C=C13)[C@H]1CCCCN21 [INVS-MG-125A]	2.4 µM	1.3 µM	2 µM	1.3 µM	
C=C(C)CC#CC1=C[C@@H]2C[C@@]3(OC(=O)C=C13)[C@H]1CCCCN21 [INVS-MG-132A]	3.8 µM	2.4 µM	2.2 µM	2.4 µM	IC50 (OCI; Homo sapiens): 0.2 µM
CCCN(CC#CC1=C[C@@H]2C[C@@]3(OC(=O)C=C13)[C@H]1CCCCN21)CCC [INVS-MG-152A]	0.7 µM	< 0.6 µM	1.9 µM	0.9 µM	IC50 (MOL3; Homo sapiens): 0.08 µM; IC50 (OCI; Homo sapiens): 0.07 µM
O=C1O[C@]23CC4OC4[C@H](ON4CCCC[C@@H]42)C32OC12 (some centres unmarked) [INVS-MG-76-aq]					EC50 (HL60 cells [1]; [7]): > 30 µM
CCCNC1CC2=CC(=O)O[C@@]23C[C@@H]1N1CCCC[C@@H]13 (some centres unmarked) [INVS-MG-44]					EC50 (HL60 cells [1]; [8]): 15 to 20 µM
O=C1C=C2C(c3cn(Cc4ccccc4)nn3)=C[C@@H]3C[C@@]2(O1)[C@H]1CCCCN31 [INVS-MG-209A]					EC50 (HL60 cells [1]; Homo sapiens, HL-60, HL-60 cells, differentiation, read-out: HL-60, Dif50): < 10 µM; IC50 (HL60 cells [2]; Homo sapiens, HL-60, HL-60 cells): < 10 µM
CCN(CC)CC#CC1=C[C@@H]2C[C@@]3(OC(=O)C=C13)[C@H]1CCCCN21 [INVS-MG-145A]	1.2 µM	0.8 µM	2.1 µM	1.1 µM	
O=C1C=C2C[C@@H](SCC(F)(F)F)[C@@H]3C[C@@]2(O1)[C@H]1CCCCN31 [INVS-MG-5C]					EC50 (HL60 cells [1]; [8]): 20 to 30 µM
COc1cccc(C#CC2=C[C@@H]3C[C@@]4(OC(=O)C=C24)[C@H]2CCCCN32)c1 [INVS-MG-165B]	3.5 µM	3.6 µM	4.2 µM	3.2 µM	
C#CC1=C[C@@H]2C[C@@]3(OC(=O)C=C13)[C@H]1CCCCN21 [INVS-MG-207-II]					EC50 (HL60 cells [1]; [8]): > 0.07 µM

SMILES	IC50 (SKOV3 P53−/−; [3])	IC50 (SKOV3 P53+/+; [4])	IC50 (HCT116 P53−/−; [5])	IC50 (HCT116 P53+/+; [6])	other results
COc1ccc(CN[C@@H]2CC3=CC(=O)O[C@@]34C[C@@H]2N2CCCC[C@@H]24)cc1 [INVS-MG-86C]					EC50 (HL60 cells [1]; [8]): > 30 µM
O=C1O[C@]23CC4OC4[C@H](ON4CCCC[C@@H]42)C32OC12 (some centres unmarked) [INVS-MG-77-aq]					EC50 (HL60 cells [1]; [9]): > 30 µM
O=C1C=C2C(C#CC3C=CCCC3)=C[C@@H]3C[C@@]2(O1)[C@H]1CCCCN31 (some centres unmarked) [INVS-MG-160B]					HL-60, Dif50/IC50 column: first value of 'x/y at 1.25 uM' (differentiation) (HL60 cells [1]; HL-60 cells, at 1.25 uM): 50; HL-60, Dif50/IC50 column: second value of 'x/y at 1.25 uM' (growth) (HL60 cells [2]; HL-60 cells, at 1.25 uM): 40
O=C1C=C2CC([S+]([O-])c3ccccc3)[C@@H]3C[C@@]2(O1)[C@H]1CCCCN31 (some centres unmarked) [Sec-21]					EC50 (HL60 cells [1]; [8]): 20 to 30 µM
O=C1CC2(SCC(F)(F)F)CC(SCC(F)(F)F)[C@@H]3C[C@@]2(O1)[C@H]1CCCCN31 (some centres unmarked) [INVS-MG-5A]					EC50 (HL60 cells [1]; [7]): 5 to 7.5 µM
CSC1CC2=CC(O)O[C@@]23C[C@@H]1N1CCCC[C@@H]13 (some centres unmarked) [Sec-8]					EC50 (HL60 cells [1]; [8]): 10 to 15 µM
COc1ccc2cc(C#CC3=C[C@@H]4C[C@@]5(OC(=O)C=C35)[C@H]3CCCCN43)ccc2c1 [INVS-MG-157B]	0.7 µM	< 0.6 µM	0.9 µM	0.7 µM	IC50 (MOL3; Homo sapiens): 0.09 µM; IC50 (HL60 cells [2]; Homo sapiens, HL-60, HL-60 cells, no unit in head or cell (other cells of the column print uM)): 0.07 to 0.156 µM
O=C1C=C2C(c3ccccc3)=C[C@@H]3C[C@@]2(O1)[C@H]1CCCCN31 [INVG-28-1 = INVS-MG-56B]					EC50 (HL60 cells [1]; [8]): > 30 µM
O=C1C=C2C[C@H](SCC(F)(F)F)[C@@H]3C[C@@]2(O1)[C@H]1CCCCN31 [INVS-MG-5B]					EC50 (HL60 cells [1]; [8]): > 30 µM
CCOC#CC1=C[C@@H]2C[C@@]3(OC(=O)C=C13)[C@H]1CCCCN21 [INVS-MG-120A]	2.6 µM	1.9 µM	2.1 µM	1.6 µM	
O=C1C=C2C(C#Cc3cc4ccccc4c4ccccc34)=C[C@@H]3C[C@@]2(O1)[C@H]1CCCCN31 [INVS-MG-158B]	3.1 µM	1.2 µM	2.3 µM	1.2 µM	
CO[C@H]1CC2=CC(=O)O[C@@]23C[C@@H]1N1CCCC[C@@H]13 [INVS-MG-97-IIB]					EC50 (HL60 cells [1]; [7]): > 30 µM
Oc1ccccc1CSC1CC2=CC(O)O[C@@]23C[C@@H]1N1CCCC[C@@H]13 (some centres unmarked) [Sec-4]					EC50 (HL60 cells [1]; [8]): 15 to 20 µM
O=C1C=C2C=C[C@@H]3C[C@@]2(O1)[C@H]1CCCCN31 [INVS-MG-94-aq]					EC50 (HL60 cells [1]; [9]): > 30 µM
COC(OC)[C@H]1CCC2N1[C@@H]1C=CC3=CC(=O)O[C@@]32C1 (some centres unmarked) [INVG-Z-27-4 = INVS-MG-52D]					EC50 (HL60 cells [1]; [7]): 3.25 to 5 µM
O=C1C=C2CC(SCCSC3CC4=CC(=O)O[C@]45C[C@H]3N3CCCC[C@H]35)[C@@H]3C[C@@]2(O1)[C@H]1CCCCN31 (some centres unmarked) [INVS-MG-7C]					EC50 (HL60 cells [1]; [8]): 10 to 15 µM
O=C1C=C2[C@@H]3C=CC[C@@]2(O1)[C@H]1CCCCN1O3 [INVS-MG-74A]					EC50 (HL60 cells [1]; [8]): > 30 µM
O=C1C=C2C(C#Cc3ccsc3)=C[C@@H]3C[C@@]2(O1)[C@H]1CCCCN31 [INVS-MG-136B]			2.1 µM	2.2 µM	IC50 (SKOV3 P53−/−; ovary cancer SKOV3 P53−/−): 2.9 µM; IC50 (SKOV3 P53+/+; ovary cancer SKOV3 P53+/+): 2.8 µM; IC50 (MOL3; Homo sapiens): 0.06 µM
O=C1C=C2C(C#Cc3ccc(OC(F)(F)F)cc3)=C[C@@H]3C[C@@]2(O1)[C@H]1CCCCN31 [INVS-MG-166B]	3.2 µM	3.5 µM	3.8 µM	2.4 µM	IC50 (MOL3; Homo sapiens): > 0.3 µM; IC50 (OCI; Homo sapiens): > 0.3 µM
